Laboratory results reported in ChEMBL document CHEMBL1201862, “PubChem BioAssay data set” (2004).
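Briefly, cells in 96-well plates were exposed to five compound concentrations for 48 h, and endpoints were estimated by linear interpolation. At the GI50, growth is halved.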 Calls of active or inactive are those of the source. Rule as the data show it: active = GI50 up to about 1.1 µM and inactive = higher.

Tests used:
Assay in all cases: growth of human tumour cells (NCI), 48 h
A549 = tested on: A549
TK-10 = tested on: TK-10
K562 = tested on: K562
DMS-114 = tested on: DMS-114
HCT-15 = tested on: HCT-15
HL-60 = tested on: HL-60
OVCAR-8 = tested on: OVCAR-8
CCRF-CEM = tested on: CCRF-CEM
U-251 = tested on: U-251
SF-539 = tested on: SF-539
CAKI-1 = tested on: CAKI-1
NCI-H522 = tested on: NCI-H522
786-0 = tested on: 786-0
SK-MEL-28 = tested on: SK-MEL-28
SNB-19 = tested on: SNB-19
LOX IMVI = tested on: LOX IMVI
COLO 205 = tested on: COLO 205
Malme-3M = tested on: Malme-3M
SR = tested on: SR
NCI-H460 = tested on: NCI-H460
LXFL 529 = tested on: LXFL 529
ACHN = tested on: ACHN
SF-295 = tested on: SF-295
SK-MEL-2 = tested on: SK-MEL-2
HOP-62 = tested on: HOP-62
IGROV-1 = tested on: IGROV-1
DLD-1 = tested on: DLD-1
OVCAR-5 = tested on: OVCAR-5
SN12C = tested on: SN12C
UACC-62 = tested on: UACC-62
HCC 2998 = tested on: HCC 2998
HCT-116 = tested on: HCT-116
HT-29 = tested on: HT-29
KM-20L2 = tested on: KM-20L2
HOP-92 = tested on: HOP-92
MOLT-4 = tested on: MOLT-4
NCI-H226 = tested on: NCI-H226
SF-268 = tested on: SF-268
RXF 393 = tested on: RXF 393
M14 = tested on: M14
A498 = tested on: A498
SNB-75 = tested on: SNB-75
KM12 = tested on: KM12
UACC-257 = tested on: UACC-257
M19-MEL = tested on: M19-MEL
HOP-18 = tested on: HOP-18
XF498 = tested on: XF498
RPMI-8226 = tested on: RPMI-8226
DMS-273 = tested on: DMS-273
UO-31 = tested on: UO-31
OVCAR-3 = tested on: OVCAR-3
SK-MEL-5 = tested on: SK-MEL-5
SK-OV-3 = tested on: SK-OV-3
OVCAR-4 = tested on: OVCAR-4
EKVX = tested on: EKVX
SW-620 = tested on: SW-620
SNB-78 = tested on: SNB-78
NCI-H23 = tested on: NCI-H23

Measured: GI50

C=C[C@@H](C)[C@]1(C(=O)OC)CCCC12OCCO2
94.2 µM: HCT-15
inactive: A549 > 100 µM | TK-10 > 100 µM | K562 > 100 µM | DMS-114 > 100 µM | HL-60 > 100 µM | OVCAR-8 > 100 µM | CCRF-CEM > 100 µM | U-251 > 100 µM | SF-539 > 100 µM | CAKI-1 > 100 µM | NCI-H522 82.2 µM | 786-0 63.8 µM | SK-MEL-28 > 100 µM | SNB-19 > 100 µM | LOX IMVI > 100 µM | COLO 205 > 100 µM | Malme-3M > 100 µM | SR 68.5 µM | NCI-H460 > 100 µM | LXFL 529 > 100 µM | ACHN > 100 µM | SF-295 > 100 µM | SK-MEL-2 > 100 µM | HOP-62 > 100 µM | IGROV-1 > 100 µM | DLD-1 > 100 µM | OVCAR-5 > 100 µM | SN12C > 100 µM | UACC-62 > 100 µM | HCC 2998 > 100 µM | HCT-116 > 100 µM | HT-29 > 100 µM | KM-20L2 > 100 µM | HOP-92 > 100 µM | MOLT-4 > 100 µM | NCI-H226 > 100 µM | SF-268 > 100 µM | RXF 393 > 100 µM | M14 > 100 µM | A498 > 100 µM | SNB-75 > 100 µM | KM12 > 100 µM | UACC-257 > 100 µM | M19-MEL > 100 µM | HOP-18 > 100 µM | XF498 > 100 µM | RPMI-8226 72.9 µM | DMS-273 39.3 µM | UO-31 > 100 µM | OVCAR-3 > 100 µM | SK-MEL-5 > 100 µM | SK-OV-3 > 100 µM | OVCAR-4 > 100 µM | EKVX > 100 µM

N#C/N=N/c1cc(Cl)c(/N=N/C#N)cc1Cl
> 100 µM: HCT-15
inactive: A549 > 100 µM | TK-10 > 100 µM | K562 27.1 µM | DMS-114 > 100 µM | HL-60 34.7 µM | OVCAR-8 > 100 µM | CCRF-CEM 19.8 µM | U-251 > 100 µM | SF-539 > 100 µM | NCI-H522 51.3 µM | SK-MEL-28 > 100 µM | SNB-19 > 100 µM | LOX IMVI 38.6 µM | COLO 205 97.5 µM | Malme-3M > 100 µM | SR 34.8 µM | NCI-H460 > 100 µM | LXFL 529 28.3 µM | ACHN > 100 µM | SF-295 > 100 µM | SK-MEL-2 > 100 µM | HOP-62 > 100 µM | IGROV-1 > 100 µM | DLD-1 > 100 µM | OVCAR-5 > 100 µM | SN12C > 100 µM | UACC-62 > 100 µM | HCC 2998 > 100 µM | HCT-116 > 100 µM | HT-29 > 100 µM | KM-20L2 > 100 µM | HOP-92 > 100 µM | MOLT-4 40.9 µM | NCI-H226 > 100 µM | SF-268 > 100 µM | RXF 393 > 100 µM | M14 > 100 µM | A498 > 100 µM | SNB-75 51.9 µM | SW-620 35.3 µM | SNB-78 > 100 µM | KM12 > 100 µM | UACC-257 > 100 µM | M19-MEL > 100 µM | XF498 > 100 µM | DMS-273 > 100 µM | OVCAR-3 > 100 µM | SK-MEL-5 > 100 µM | SK-OV-3 > 100 µM | OVCAR-4 47 µM | NCI-H23 > 100 µM | EKVX > 100 µM
